# Results published in patent US20100278776A1, “PHARMACEUTICAL COMPOSITIONS FOR MODULATING A KINASE CASCADE AND METHODS OF USE THEREOF” (Kinex Pharmaceuticals, LLC, priority 2007, published 2010).
# Structures can show the parent of a compound that is named as a salt. Where two headings read alike, the source gives them in different places.
# How the values were obtained:
# Jurkat cells = test: Leukemia cell growth inhibition, Jurkat; format: cell-based; settings: Homo sapiens; Jurkat (Adult T cell leukemia)
# [1] = test system: HT29 (human colon cancer) xenograft; test: Oral potency in staged HT29 mouse xenografts; settings: 25 mg/kg bid; at day 5 dose lowered to 15 mg/kg bid
# H460 cells = test: Dasatinib-resistant cell growth inhibition (MTT), H460; format: cell-based; settings: Homo sapiens, NCI-H460, 8.0×10^3 cells/well, 1.5% FBS, 78 Hr
# Experimental: The OD570 was measured using microplate reader. Growth inhibition curves and EC50/IC50 were determined using GraphPad Prism 4 statistical software. Data was normalized to represent percent of maximum response.
# HT29 cell line = test: Cell growth inhibition (BrdU assay), HT29; format: cell-based, human
# Experimental: The HT29 cell line is a NCI standard human colon carcinoma cell line.
# (§1) In the BrdU Assay for cell growth inhibition, quantitation of cell proliferation was based on the measurement of BrdU incorporation during DNA synthesis. The Cell Proliferation ELISA BrdU assay kit (colorimetric) was obtained from Roche Applied Science and performed as per vendor instructions.
# (§2) The growth inhibition (GI) is determined from the formula GI=(T0−Tn×100/T0−CONn) where T0 is the BrdU growth of untreated cells at time “0”, Tn is the BrdU growth of treated cells at day “n” and CONn is the control BrdU growth of control cells at day “n”. The GI50 was extrapolated and the data plotted using XL-Fit 4.0 software.
# (§3) For 96 well culture plate experiments, c-Src 3T3 medium was supplemented with 10 mM HEPES buffer. HT-29 cells were seeded in standard tissue culture 96-well plates and c-Src 3T3 cells were seeded in 96-well plates coated with Poly-D-lysine (BIOCOAT™). To increase CO2 diffusion, c-Src 3T3 96-well plates were incubated with their lids raised by ˜2 mm using sterile rubber caps.
# (§4) Samples were reconstituted in DMSO at 20 mM and intermediate dilutions made using DMEM containing 10% FBS. […] Plates were assayed for BrdU and the data analyzed as above for GI50.
# Lck(h) = Lck(h) (Homo sapiens, UniProt P06239); test: Isolated kinase activity, Lck; format: biochemical; settings: @ 10 μM
# Sequence of Lck(h) (P06239 whole entry): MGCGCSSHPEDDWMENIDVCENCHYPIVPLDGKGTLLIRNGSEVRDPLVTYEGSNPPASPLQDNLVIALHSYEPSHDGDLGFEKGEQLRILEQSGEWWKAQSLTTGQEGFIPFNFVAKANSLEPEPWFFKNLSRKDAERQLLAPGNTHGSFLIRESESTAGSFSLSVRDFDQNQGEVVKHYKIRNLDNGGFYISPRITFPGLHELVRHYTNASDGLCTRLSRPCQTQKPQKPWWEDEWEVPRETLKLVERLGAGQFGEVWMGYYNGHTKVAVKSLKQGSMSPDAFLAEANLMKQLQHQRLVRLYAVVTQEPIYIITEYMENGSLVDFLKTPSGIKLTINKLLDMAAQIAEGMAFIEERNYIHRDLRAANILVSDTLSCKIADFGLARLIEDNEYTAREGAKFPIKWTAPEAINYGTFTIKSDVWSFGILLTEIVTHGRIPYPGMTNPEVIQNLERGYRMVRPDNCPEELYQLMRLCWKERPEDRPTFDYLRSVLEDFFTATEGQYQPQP
# MAPK2(h) = MAPK2(h) (Homo sapiens, UniProt P28482); test: Isolated kinase activity, MAPK2; format: biochemical; settings: @ 10 μM
# ZAP-70(h) = ZAP-70(h) (Homo sapiens, UniProt P43403); test: Isolated kinase activity, ZAP-70; format: biochemical; settings: @ 10 μM
# EGFR(h) = EGFR(h) (Homo sapiens, UniProt P00533); test: Isolated kinase activity, EGFR; format: biochemical; settings: @ 10 μM
# Lyn(h) = Lyn(h) (Homo sapiens, UniProt P07948); test: Isolated kinase activity, Lyn; format: biochemical; settings: @ 10 μM
# Sequence of Lyn(h) (P07948 whole entry): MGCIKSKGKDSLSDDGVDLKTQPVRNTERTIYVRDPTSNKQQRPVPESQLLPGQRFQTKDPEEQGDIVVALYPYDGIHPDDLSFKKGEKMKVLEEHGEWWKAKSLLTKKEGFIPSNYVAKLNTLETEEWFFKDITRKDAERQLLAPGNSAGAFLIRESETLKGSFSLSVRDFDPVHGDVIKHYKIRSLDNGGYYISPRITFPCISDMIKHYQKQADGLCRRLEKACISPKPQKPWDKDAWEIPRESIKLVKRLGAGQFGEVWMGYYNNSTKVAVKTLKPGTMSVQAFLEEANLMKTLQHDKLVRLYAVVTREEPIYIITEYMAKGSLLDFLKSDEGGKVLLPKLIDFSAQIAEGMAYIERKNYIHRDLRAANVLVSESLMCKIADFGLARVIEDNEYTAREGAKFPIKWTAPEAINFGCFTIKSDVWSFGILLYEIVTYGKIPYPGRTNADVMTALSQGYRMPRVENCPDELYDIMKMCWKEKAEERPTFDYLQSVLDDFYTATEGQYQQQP
# PI3 kinase = test: Isolated kinase activity, PI3 kinase; format: biochemical; settings: @ 10 μM
# FGFR2(h) = FGFR2(h) (Homo sapiens, UniProt P21802); test: Isolated kinase activity, FGFR2; format: biochemical; settings: @ 10 μM
# c-Src527F/NIH3T3 cells = test: Cell growth inhibition (BrdU assay), c-Src 3T3; format: cell-based; settings: Mus musculus
# Experimental: The cells were routinely cultured in DMEM supplemented with Fetal Bovine Serum (2.0% v/V), L-glutamine (2 mM) and Sodium Pyruvate (1 mM).
# as §1, §2, §3, §4
# FAK Y397 = test: FAK autophosphorylation in whole cells; format: cell-based; settings: c-Src527F/NIH3T3 cells
# Experimental: (§5) AZ28 serves as a positive comparator to show what a validated Src inhibitor should do in these assays. After treatment with compound, cells were lysed, subjected to PAGE and probed with a battery of antibodies. […] In addition, off-target protein phosphorylation was also investigated. Further, induction of apoptosis was evaluated via Caspase 3 cleavage. Multiple doses of each compound were tested because the trends in response to increasing drug concentration are the most reliable indicator of activity.
# FAK Y397 is mainly a FAK autophosphorylation site and only a poor Src transphorylation site. AZ28 is not a potent FAK inhibitor (see isolated enzyme data in Example 8).
# Caspase-3 cleavage = test: Induction of apoptosis via Caspase 3 cleavage; format: cell-based; settings: HT29 and c-Src527F/NIH-3T3 cells
# Experimental: as §5
# Cleavage of Caspase-3 is a good measure of induction of apoptosis.
# IR(h) = IR(h) (Homo sapiens, UniProt P06213); test: Isolated kinase activity, IR; format: biochemical; settings: @ 10 μM
# Abl(h) = Abl(h) (Homo sapiens, UniProt P00519); test: Isolated kinase activity, Abl; format: biochemical; settings: @ 10 μM
# Sequence of Abl(h) (P00519 whole entry): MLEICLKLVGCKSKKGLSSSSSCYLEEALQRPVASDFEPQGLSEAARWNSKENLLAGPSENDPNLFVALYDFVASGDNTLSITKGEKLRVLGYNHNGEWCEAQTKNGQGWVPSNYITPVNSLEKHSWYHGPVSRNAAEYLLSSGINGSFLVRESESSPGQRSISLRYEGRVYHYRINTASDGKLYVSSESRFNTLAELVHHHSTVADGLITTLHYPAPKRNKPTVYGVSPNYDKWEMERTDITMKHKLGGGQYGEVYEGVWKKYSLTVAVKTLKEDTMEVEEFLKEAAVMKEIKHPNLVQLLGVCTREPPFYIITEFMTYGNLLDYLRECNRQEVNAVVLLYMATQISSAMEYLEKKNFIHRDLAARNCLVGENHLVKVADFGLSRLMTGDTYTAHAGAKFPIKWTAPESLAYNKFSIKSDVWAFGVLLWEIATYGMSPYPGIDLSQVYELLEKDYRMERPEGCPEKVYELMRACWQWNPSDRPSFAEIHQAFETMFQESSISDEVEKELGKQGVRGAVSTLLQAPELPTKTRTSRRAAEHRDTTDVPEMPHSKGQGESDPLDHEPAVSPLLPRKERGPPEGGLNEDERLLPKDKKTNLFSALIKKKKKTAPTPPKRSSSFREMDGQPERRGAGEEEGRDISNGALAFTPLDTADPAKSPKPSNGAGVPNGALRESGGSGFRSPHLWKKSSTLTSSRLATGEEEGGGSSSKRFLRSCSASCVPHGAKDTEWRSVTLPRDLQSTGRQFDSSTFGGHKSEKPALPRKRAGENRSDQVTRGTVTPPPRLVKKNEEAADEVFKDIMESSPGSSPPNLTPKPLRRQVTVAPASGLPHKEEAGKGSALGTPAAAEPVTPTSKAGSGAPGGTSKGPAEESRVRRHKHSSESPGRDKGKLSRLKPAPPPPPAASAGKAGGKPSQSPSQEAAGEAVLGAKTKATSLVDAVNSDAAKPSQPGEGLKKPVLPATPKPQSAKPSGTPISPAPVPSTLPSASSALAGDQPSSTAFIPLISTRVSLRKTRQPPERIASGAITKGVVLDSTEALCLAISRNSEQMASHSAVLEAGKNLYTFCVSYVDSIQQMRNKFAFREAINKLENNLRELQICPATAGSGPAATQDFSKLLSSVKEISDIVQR
# Src = target: T1, Src (Homo sapiens, UniProt P12931, Y530F); test: Src kinase activity in whole cells (auto- and transphosphorylation, PAGE/antibodies); format: cell-based
# T1 construct: expressed in transfected cells; host or cells: c-Src527F/NIH-3T3 (mouse fibroblasts transfected with human c-Src Y527F); part of the results come from HT-29 (endogenous human Src)
# Experimental: as §5
# isolated Src = isolated Src (Homo sapiens, UniProt P12931); test: Titration against isolated Src; format: biochemical
# total phosphotyrosine = test: Total phosphotyrosine levels in cells; format: cell-based; settings: HT29 and c-Src527F/NIH-3T3 cells
# Experimental: as §5
# IGF-1R(h) = IGF-1R(h) (Homo sapiens, UniProt P08069); test: Isolated kinase activity, IGF-1R; format: biochemical; settings: @ 10 μM
# Sequence of IGF-1R(h) (P08069 31-1367): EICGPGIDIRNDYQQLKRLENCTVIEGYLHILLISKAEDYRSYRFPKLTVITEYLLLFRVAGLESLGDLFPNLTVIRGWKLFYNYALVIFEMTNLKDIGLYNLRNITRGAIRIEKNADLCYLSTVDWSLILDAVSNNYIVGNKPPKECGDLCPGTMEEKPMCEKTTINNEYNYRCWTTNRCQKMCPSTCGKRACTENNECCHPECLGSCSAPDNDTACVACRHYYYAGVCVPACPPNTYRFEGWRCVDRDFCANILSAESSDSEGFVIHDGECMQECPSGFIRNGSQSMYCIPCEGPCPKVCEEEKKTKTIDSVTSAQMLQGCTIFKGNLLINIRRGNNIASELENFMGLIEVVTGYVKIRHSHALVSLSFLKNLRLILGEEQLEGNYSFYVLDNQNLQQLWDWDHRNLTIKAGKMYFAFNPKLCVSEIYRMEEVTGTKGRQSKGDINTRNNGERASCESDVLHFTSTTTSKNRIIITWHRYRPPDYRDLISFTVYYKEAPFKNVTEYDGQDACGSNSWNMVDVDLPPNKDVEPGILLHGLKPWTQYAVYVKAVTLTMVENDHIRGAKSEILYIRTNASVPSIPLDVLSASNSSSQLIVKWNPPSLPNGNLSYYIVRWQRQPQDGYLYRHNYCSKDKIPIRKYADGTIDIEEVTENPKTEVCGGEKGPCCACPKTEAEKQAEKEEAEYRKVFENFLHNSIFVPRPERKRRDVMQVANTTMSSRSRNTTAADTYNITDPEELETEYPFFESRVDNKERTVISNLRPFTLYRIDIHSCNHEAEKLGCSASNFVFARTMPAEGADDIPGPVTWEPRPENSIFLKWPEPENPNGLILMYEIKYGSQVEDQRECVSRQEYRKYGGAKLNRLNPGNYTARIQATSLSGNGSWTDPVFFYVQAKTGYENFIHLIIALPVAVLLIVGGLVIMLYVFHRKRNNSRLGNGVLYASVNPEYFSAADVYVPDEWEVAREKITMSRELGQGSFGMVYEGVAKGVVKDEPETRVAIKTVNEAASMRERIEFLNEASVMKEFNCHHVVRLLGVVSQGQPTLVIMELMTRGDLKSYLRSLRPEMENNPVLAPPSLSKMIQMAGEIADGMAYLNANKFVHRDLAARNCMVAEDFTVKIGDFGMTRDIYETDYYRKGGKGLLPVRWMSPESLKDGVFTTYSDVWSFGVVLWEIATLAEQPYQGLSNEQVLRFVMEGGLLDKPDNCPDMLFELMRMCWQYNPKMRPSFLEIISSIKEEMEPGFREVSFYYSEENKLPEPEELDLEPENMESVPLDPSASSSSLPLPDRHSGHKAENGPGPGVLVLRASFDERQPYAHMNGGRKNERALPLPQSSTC
# PDGFRβ(h) = PDGFRβ(h) (Homo sapiens, UniProt P09619); test: Isolated kinase activity, PDGFRβ; format: biochemical; settings: @ 10 μM
# [2] = test system: EGFR tyrosine kinase (EGF Y845); test: EGFR tyrosine kinase autophosphorylation in whole cells; format: cell-based
# Experimental: as §5
# This site is not a direct Src phosphorylation site.
# [3] = target: T2, PDGF receptor tyrosine kinase Y572/574 (Mus musculus, UniProt P26618); test: PDGF receptor autophosphorylation in whole cells; format: cell-based
# T2 construct: endogenous in cells; host or cells: c-Src527F/NIH-3T3
# Experimental: as §5
# This is thought not to be a direct Src substrate in cells.
# Fyn(h) = Fyn(h) (Homo sapiens, UniProt P06241); test: Isolated kinase activity, Fyn; format: biochemical; settings: @ 10 μM
# Sequence of Fyn(h) (P06241 whole entry): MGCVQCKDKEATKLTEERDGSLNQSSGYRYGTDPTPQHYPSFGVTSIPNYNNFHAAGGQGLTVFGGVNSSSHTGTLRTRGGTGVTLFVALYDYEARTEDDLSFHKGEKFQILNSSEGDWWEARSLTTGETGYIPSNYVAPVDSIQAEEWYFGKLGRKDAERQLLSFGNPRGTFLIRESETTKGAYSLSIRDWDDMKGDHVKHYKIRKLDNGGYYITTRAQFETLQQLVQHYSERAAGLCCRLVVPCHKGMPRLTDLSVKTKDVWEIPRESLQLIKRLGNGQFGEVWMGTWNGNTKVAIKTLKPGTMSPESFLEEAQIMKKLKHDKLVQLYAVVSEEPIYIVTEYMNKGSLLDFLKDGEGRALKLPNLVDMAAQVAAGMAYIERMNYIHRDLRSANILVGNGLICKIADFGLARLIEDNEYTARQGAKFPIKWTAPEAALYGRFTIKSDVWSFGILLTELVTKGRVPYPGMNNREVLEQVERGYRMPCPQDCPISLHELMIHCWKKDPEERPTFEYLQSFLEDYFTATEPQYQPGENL
# Yes(h) = Yes(h) (Homo sapiens, UniProt P07947); test: Isolated kinase activity, Yes; format: biochemical; settings: @ 10 μM
# isolated FAK = isolated FAK (Homo sapiens, UniProt Q05397); test: Titration against isolated FAK; format: biochemical
# Sequence of isolated FAK (Q05397 whole entry): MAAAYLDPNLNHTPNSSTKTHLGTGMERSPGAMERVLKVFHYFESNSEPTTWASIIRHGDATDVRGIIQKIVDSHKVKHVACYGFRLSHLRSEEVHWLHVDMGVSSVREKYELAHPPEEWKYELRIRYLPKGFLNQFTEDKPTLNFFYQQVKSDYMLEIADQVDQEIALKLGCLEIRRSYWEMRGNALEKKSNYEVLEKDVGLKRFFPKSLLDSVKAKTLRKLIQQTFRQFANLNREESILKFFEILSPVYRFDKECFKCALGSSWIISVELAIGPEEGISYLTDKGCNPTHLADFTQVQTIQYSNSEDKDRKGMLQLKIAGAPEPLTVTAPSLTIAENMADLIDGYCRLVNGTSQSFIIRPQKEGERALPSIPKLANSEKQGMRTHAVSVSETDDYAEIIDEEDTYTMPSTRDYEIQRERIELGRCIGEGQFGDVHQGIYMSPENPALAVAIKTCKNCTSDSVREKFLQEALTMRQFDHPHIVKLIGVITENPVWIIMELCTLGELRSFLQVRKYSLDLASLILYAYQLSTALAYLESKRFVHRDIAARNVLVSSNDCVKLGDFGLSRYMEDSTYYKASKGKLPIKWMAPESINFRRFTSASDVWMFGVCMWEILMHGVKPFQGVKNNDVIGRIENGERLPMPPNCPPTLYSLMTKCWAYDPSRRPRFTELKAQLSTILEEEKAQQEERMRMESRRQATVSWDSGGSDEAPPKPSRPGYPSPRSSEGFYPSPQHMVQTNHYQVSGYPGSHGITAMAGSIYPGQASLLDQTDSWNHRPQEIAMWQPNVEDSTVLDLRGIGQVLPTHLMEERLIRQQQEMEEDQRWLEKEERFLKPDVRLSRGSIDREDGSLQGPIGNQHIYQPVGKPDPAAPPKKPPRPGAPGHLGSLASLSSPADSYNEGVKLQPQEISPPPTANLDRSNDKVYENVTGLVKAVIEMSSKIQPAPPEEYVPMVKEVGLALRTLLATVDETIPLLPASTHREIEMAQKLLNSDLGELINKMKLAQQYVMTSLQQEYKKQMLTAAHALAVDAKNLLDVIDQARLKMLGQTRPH
# PKCα(h) = PKCα(h) (Homo sapiens, UniProt P17252); test: Isolated kinase activity, PKCα; format: biochemical; settings: @ 10 μM
# Pyk2(h) = Pyk2(h) (Homo sapiens, UniProt Q14289); test: Isolated kinase activity, Pyk2; format: biochemical; settings: @ 10 μM
# SKOV-3 cells = test: Cell growth inhibition (BrdU assay), SKOV-3; settings: SKOV-3 (Ovarian); Drug 1 = taxol
# Experimental: (§6) Cell lines being evaluated are: SKOV-2, K562, HT-29, A549, and MDA231. […] Except MDA231, this line is grown at 37° C. and 0% CO2.
# (§7) Except MDA231, this line is grown at 37° C. and 0% CO2. Brdu assay was performed at T=0 and T=72.
# (§8) Growth Inhibition. The BrdU data was used to determine the % growth inhibition for each sample concentration using the formula:
# (§9) where T0=Fluorescence of cells at time 0; T1=Fluorescence of treated cells at x hours; Con=Fluorescence of control cells at x hours. T1 values T0 values were designated as T, cytotoxicity. The GI50 was estimated using XLFit excluding T1 values T0 (cytotoxicity).
# A549 cells = test: Cell growth inhibition (BrdU assay), A549; format: cell-based, human; settings: A549 (Lung); Drug 1 = Tarceva
# Experimental: as §6, §7, §8, §9
# L3.6pl cell line = test: Cell growth inhibition (BrdU assay), L3.6pl; format: cell-based, human
# Excerpt: L3.6pl cells are previously described in Trevino et al. Am J. Pathol.
# HBV = HBV primary assay (HepG2-2.2.15 antiviral assay); format: cell-based; settings: Hepatitis B virus, Test Concentration 10 μM, read-out: Antiviral Activity Percent inhibition of cell control
# Experimental: The HBV primary assay developed was conducted similarly to that described by Korba et al., (Antiviral Res. 15: 217-228 (1991) and Antiviral Res. 19: 55-70 (1992)) with the exception that viral DNA detection and quantification have been improved and simplified (Korba et al., Antiviral Res. 19: 55-70 (1992)).
# The HepG2-2.2.15 is a stable cell line producing high levels of the wild-type aywl strain of HBV. Briefly, HepG2-2.2.15 cells were plated in 96-well plates. Only the interior wells were utilized to reduce “edge effects” observed during cell culture; the exterior wells are filled with complete medium to help minimize sample evaporation. […] Six days following the initial administration of the test compound, the cell culture supernatant was collected, treated with pronase and DNAse and then used in a real-time quantitative TaqMan PCR assay for direct measurement of HBV DNA copies using an ABI Prism 7900 sequence detection system (Applied Biosystems, Foster City, Calif.).
# The antiviral activity of each test compound was calculated by comparing its HBV DNA copies against that of the untreated control cells (100%) to derive percent inhibition level. […] Cytotoxicity of the compound was determined by comparing its cell viability with that of the untreated cell control to derive percentage of the cell control.
smiles,measurement,setting,value
Cc1nc(Nc2ncc(C(=O)Nc3c(C)cccc3Cl)s2)cc(N2CCN(CCO)CC2)n1 [Dasatinib],GI50,Jurkat cells,8 nM
same,body weight,[1],weight loss
same,IC50,H460 cells,90 nM
COc1cc2c(Nc3c(Cl)ccc4c3OCO4)ncnc2cc1OCCCN1CCCCC1 [KX2-328],GI50,"HT29 cell line; Homo sapiens, HT-29, HT29 (Colon), read-out: GI50",647 nM
same,GI50,"HT29 cell line; Homo sapiens, HT-29, HT29, read-out: GI50",794 nM
same,GI50,"HT29 cell line; Homo sapiens, HT-29, NCI human colon cancer cell line HT29",794 nM
same,activity at 0.05 µM,"HT29 cell line; Homo sapiens, HT-29, 50 nM, read-out: HT-29 Growth, % of Control, Mean, n = 3",73%
same,activity at 0.5 µM,"HT29 cell line; Homo sapiens, HT-29, 500 nM, read-out: HT-29 Growth, % of Control, Mean, n = 3",10%
same,activity at 5 µM,"HT29 cell line; Homo sapiens, HT-29, 5 uM, read-out: HT-29 Growth, % of Control, Mean, n = 3",< 0%
same,percent activity of isolated kinase relative to control (untreated),Lck(h),1%
same,percent activity of isolated kinase relative to control (untreated),MAPK2(h),105%
same,percent activity of isolated kinase relative to control (untreated),ZAP-70(h),97%
same,percent activity of isolated kinase relative to control (untreated),EGFR(h),3%
same,percent activity of isolated kinase relative to control (untreated),Lyn(h),0%
same,percent activity of isolated kinase relative to control (untreated),PI3 kinase,99%
same,percent activity of isolated kinase relative to control (untreated),FGFR2(h),94%
same,GI50,"c-Src527F/NIH3T3 cells; NIH3T3, c-Src 3T3",99 nM
same,GI50,"c-Src527F/NIH3T3 cells; NIH3T3, c-Src527F/NIH3T3",87 nM
same,GI50,"c-Src527F/NIH3T3 cells; NIH3T3, c-Src/NIH-3T3 engineered cell line",99 nM
same,activity at 0.1 µM,"c-Src527F/NIH3T3 cells; NIH3T3, 100 nM, read-out: c-Src 3T3 Growth, % of Control, Mean, n = 3",13%
same,activity at 1 µM,"c-Src527F/NIH3T3 cells; NIH3T3, 1.0 uM, read-out: c-Src 3T3 Growth, % of Control, Mean, n = 3",< 0%
same,activity at 10 µM,"c-Src527F/NIH3T3 cells; NIH3T3, 10 uM, read-out: c-Src 3T3 Growth, % of Control, Mean, n = 3",< 0%
same,FAK autophosphorylation (Y397),FAK Y397,some inhibition
same,induction of apoptosis (Caspase-3 cleavage),Caspase-3 cleavage,not effective in inducing apoptosis
same,percent activity of isolated kinase relative to control (untreated),IR(h),125%
same,percent activity of isolated kinase relative to control (untreated),Abl(h),1%
same,phosphorylation of Paxillin Y-31 (Src transphosphorylation substrate),Src; c-Src527F/NIH-3T3 cells,inhibited Src trans-phosphorylation
same,phosphorylation of FAK Tyr 925 (Src transphosphorylation substrate),Src; whole cells,inhibited Src trans-phosphorylation
same,phosphorylation of Shc Y239/240 (Src transphosphorylation substrate),Src; whole cells,inhibited Src trans-phosphorylation
same,IC50,isolated Src,8 nM
same,fold less potent against cell growth than against isolated Src,isolated Src,10-100 ×
same,total phosphotyrosine levels,total phosphotyrosine,reduction in the total phosphotyrosine levels
same,percent activity of isolated kinase relative to control (untreated),IGF-1R(h),110%
same,percent activity of isolated kinase relative to control (untreated),PDGFRβ(h),98%
same,EGFR tyrosine kinase autophosphorylation,[2],potently inhibits
same,PDGF receptor autophosphorylation (Y572/574),[3],dose response reduction
same,percent activity of isolated kinase relative to control (untreated),Fyn(h),2%
same,percent activity of isolated kinase relative to control (untreated),Yes(h),1%
same,IC50,isolated FAK,> 500 nM
same,fold less potent against isolated FAK (than isolated Src),isolated FAK,≥ 100 ×
same,percent activity of isolated kinase relative to control (untreated),PKCα(h),111%
same,percent activity of isolated kinase relative to control (untreated),Pyk2(h),43%
CC(=O)O[C@H]1C(=O)[C@@]2(C)[C@H]([C@H](OC(=O)c3ccccc3)[C@]3(O)C[C@H](OC(=O)[C@H](O)[C@@H](NC(=O)c4ccccc4)c4ccccc4)C(C)=C1C3(C)C)[C@]1(OC(C)=O)CO[C@@H]1C[C@@H]2O [taxol],Drug 1:compound (I) GI50 ratio,SKOV-3 cells,0.40
C#Cc1cccc(Nc2ncnc3cc(OCCOC)c(OCCOC)cc23)c1 [Tarceva],Drug 1:compound (I) GI50 ratio,A549 cells,134
"Nc1ccn([C@@H]2O[C@H](CO)[C@@H](O)C2(F)F)c(=O)n1 [Gemcitabine, gemcitabine]",GI50,"L3.6pl cell line; Homo sapiens, L3.6pl, BrdU, T=72, read-out: GI50, Single",1.76 nM
same,Drug 1:compound (I) GI50 ratio,"L3.6pl cell line; L3.6pl (Pancreas), Drug 1 = Gemcitabine",1/13
O=C1[O][Pt]2([NH][C@@H]3CCCC[C@H]3[NH]2)[O]C1=O [oxaliplatin],Drug 1:compound (I) GI50 ratio,"HT29 cell line; HT29 (Colon), Drug 1 = oxaliplatin",59
"O=C(Cc1ccc(-c2ccc(OCCN3CCOCC3)cc2)cn1)NCc1ccccc1 [Compound (I): 2HCl, 2-(5-(4-(2-morpholinoethoxy)phenyl)pyridin-2-yl)-N-benzylacetamide dihydrochloride salt]",inhibition at 10 µM,HBV,48.2%
